From patent US20060052314A1, “Pharmaceutical combination” (priority 2002, published 2006) come the findings set out here.

Data set [1] can be described thus: Test G: conversion to active inhibitor in liver microsomes from humans. The data set is classed as in vitro ADME. The protocol: (§1) By “prodrug of a thrombin inhibitor”, we include compounds that form a thrombin inhibitor, in an experimentally-detectable amount, and within a predetermined time (e.g. about 1 hour), following oral or parenteral administration (see, for example, Test E below) or, alternatively, following incubation in the presence of liver microsomes (see, for example, Test G below).
Background: Microsomes from liver hold many membrane-bound enzymes, among them those of drug oxidation.

Data set [2] in a line: Test G: conversion to active inhibitor in liver microsomes from rats. The data set is classed as in vitro ADME. The procedure:
as §1

Another data set has as its target thrombin (Homo sapiens, UniProt P00734). Nature of the data set: Test A: IC50TT. The format is biochemical.

Counter-ions that a name gives are not always drawn. Some results are limits rather than exact numbers.

The melting point is the temperature, or range, at which the solid turns liquid. As to `N=C(N)c1cnc(CNC(=O)[C@@H]2CCN2C(=O)[C@H](O)c2cc(Cl)cc(OC(F)F)c2)nc1` (as salt: TFA) [Example 36, Ph(3-Cl)(5-OCHF2)—(R)CH(OH)C(O)-Aze-NH—CH2-((5-amidino)-2-pyrimidinyl)], the melting point fell in the range of 86 to 87 °C. `NC(=NO)c1ccc(CNC(=O)[C@@H]2CCN2C(=O)[C@H](O)c2cc(Cl)cc(OC(F)F)c2)cc1` [Example 2, Ph(3-Cl)(5-OCHF2)—(R)CH(OH)C(O)-Aze-Pab(OH)]: the “conversion to the corresponding active inhibitor (free amidine)” value in data set [1] and in data set [2] was “converted to the corresponding active inhibitor (free amidine)” each time. Turning to `CON=C(N)c1ccc(CNC(=O)[C@@H]2CCN2C(=O)[C@H](O)c2cc(Cl)cc(OC(F)(F)F)c2)cc1` [Example 7, Ph(3-Cl)(5-OCF3)—(R)CH(OH)C(O)-Aze-Pab(OMe)], the “conversion to the corresponding active inhibitor (free amidine)” value in data set [1] and in data set [2] was “converted to the corresponding active inhibitor (free amidine)” in each case. As to `CON=C(N)c1ccc(CNC(=O)[C@@H]2CCN2C(=O)[C@H](CO)c2cc(Cl)cc(OC(F)(F)F)c2)cc1` [Example 11, Ph(3-Cl)(5-OCF3)—(S)CH(CH2OH)C(O)-Aze-Pab(OMe)], the “conversion to the corresponding active inhibitor (free amidine)” value in data set [1] and in data set [2] was “converted to the corresponding active inhibitor (free amidine)” throughout. Turning to `CON=C(N)c1ccc(CNC(=O)[C@@H]2CCN2C(=O)[C@H](O)c2cc(Cl)cc(OC(F)F)c2)cc1` [Example 12, Ph(3-Cl)(5-OCHF2)—(R)CH(OH)C(O)-Aze-Pab(OMe)], the “conversion to the corresponding active inhibitor (free amidine)” value in data set [1] and in data set [2] was “converted to the corresponding active inhibitor (free amidine)” in each case. As for `CON=C(N)c1ccc(CNC(=O)[C@@H]2CCN2C(=O)[C@H](O)c2cc(Cl)cc(OCC(F)(F)F)c2)cc1` [Example 16, Ph(3-Cl)(5-OCH2CF3)—(R)CH(OH)C(O)-Aze-Pab(OMe)], the “conversion to the corresponding active inhibitor (free amidine)” value in data set [1] and in data set [2] was “converted to the corresponding active inhibitor (free amidine)” throughout. Consider `CON=C(N)c1ccc(CNC(=O)[C@@H]2CCN2C(=O)[C@H](O)c2cc(Cl)cc(OCC(F)F)c2)cc1` [Example 18, Ph(3-Cl)(5-OCH2CHF2)—(R)CH(OH)C(O)-Aze-Pab(OMe)], for which the “conversion to the corresponding active inhibitor (free amidine)” value in data set [1] and in data set [2] was “converted to the corresponding active inhibitor (free amidine)” in each case. In the case of `CON=C(N)c1ccc(CNC(=O)[C@@H]2CCN2C(=O)[C@H](O)c2cc(Cl)cc(OCF)c2)cc1` [Example 20, Ph(3-Cl)(5-OCH2F)—(R)CH(OH)C(O)-Aze-Pab(OMe)], the “conversion to the corresponding active inhibitor (free amidine)” value in data set [1] and in data set [2] was “converted to the corresponding active inhibitor (free amidine)” in each case. As for `CON=C(N)c1ccc(CNC(=O)[C@@H]2CCN2C(=O)[C@H](O)c2cc(Cl)cc(OCCF)c2)cc1` [Example 22, Ph(3-Cl)(5-OCH2CH2F)—(R)CH(OH)C(O)-Aze-Pab(OMe)], the “conversion to the corresponding active inhibitor (free amidine)” value in data set [1] and in data set [2] was “converted to the corresponding active inhibitor (free amidine)” each time.

On to `CON=C(N)c1ccc(CNC(=O)[C@@H]2CCN2C(=O)[C@H](O)c2cc(Cl)cc(OC(CF)CF)c2)cc1` [Example 24, Ph(3-Cl)(5-OCH(CH2F)2)—(R)CH(OH)C(O)-Aze-Pab(OMe)], for which the “conversion to the corresponding active inhibitor (free amidine)” value in data set [1] and in data set [2] was “converted to the corresponding active inhibitor (free amidine)” throughout. With `CON=C(N)c1ccc(CNC(=O)[C@@H]2CCN2C(=O)[C@H](O)c2cc(F)cc(OC(F)F)c2)cc1` [Example 26, Ph(3-F)(5-OCHF2)—(R)CH(OH)C(O)-Aze-Pab(OMe)], the “conversion to the corresponding active inhibitor (free amidine)” value in data set [1] and in data set [2] was “converted to the corresponding active inhibitor (free amidine)” throughout. As to `CON=C(N)c1ccc(CNC(=O)[C@@H]2CCCN2C(=O)[C@H](O)c2cc(Cl)cc(OC(F)F)c2)cc1` [Example 33, Ph(3-Cl)(5-OCHF2)—(R)CH(OH)—C(O)-Pro-Pab(OMe)], the “conversion to the corresponding active inhibitor (free amidine)” value in data set [1] and in data set [2] was “converted to the corresponding active inhibitor (free amidine)” throughout. A word on the IC50: it is the concentration that inhibits the measured activity by half. A higher IC50 goes with weaker potency in that assay. Turning to `N=C(N)c1ccc(CNC(=O)[C@@H]2CCN2C(=O)[C@H](O)c2cc(Cl)cc(OC(F)F)c2)cn1` [Example 34, Ph(3-Cl)(5-OCHF2)—(R)CH(OH)C(O)-Aze-NH—CH2-((2-amidino)-5-pyridinyl)], at thrombin, the IC50 is below 20 nM. Still for that read-out and setting: for `N=C(N)c1cnc(CNC(=O)[C@@H]2CCN2C(=O)[C@H](O)c2cc(Cl)cc(OC(F)F)c2)nc1` [Example 36, Ph(3-Cl)(5-OCHF2)—(R)CH(OH)C(O)-Aze-NH—CH2-((5-amidino)-2-pyrimidinyl)] the value was below 3500 nM. Take `CO/N=C(\N)c1cnc(CNC(=O)[C@@H]2CCN2C(=O)[C@H](O)c2cc(Cl)cc(OC(F)F)c2)nc1` [Example 37, Ph(3-Cl)(5-OCHF2)—(R)CH(OH)C(O)-Aze-NH—CH2-((5-methoxyamidino)-2-pyrimidinyl)]: the “conversion to the corresponding active inhibitor (free amidine)” value in data set [1] and in data set [2] was “converted to the corresponding active inhibitor (free amidine)” throughout.

For `N=C(N)c1ccc(CNC(=O)[C@@H]2CCN2C(=O)[C@H](O)c2cc(Cl)cc(OC(F)F)c2)cc1F` [Example 38, Ph(3-Cl)(5-OCHF2)—(R)CH(OH)C(O)-Aze-Pab(3-F)], on thrombin, the IC50 is below 150 nM. `N=C(N)c1cc(F)c(CNC(=O)[C@@H]2CCN2C(=O)[C@H](O)c2cc(Cl)cc(OC(F)F)c2)c(F)c1` [Example 39, Ph(3-Cl)(5-OCHF2)—(R)CH(OH)C(O)-Aze-Pab(2.6-diF)] showed a 50% inhibitory concentration (IC50) at thrombin below 20 nM. Take `CO/N=C(\N)c1cc(F)c(CNC(=O)[C@@H]2CCN2C(=O)[C@H](O)c2cc(Cl)cc(OC(F)F)c2)c(F)c1` [Example 40, Ph(3-Cl)(5-OCHF2)—(R)CH(OH)C(O)-Aze-Pab(2,6-diF)(OMe)]: the “conversion to the corresponding active inhibitor (free amidine)” value in data set [1] and in data set [2] was “converted to the corresponding active inhibitor (free amidine)” throughout. The molecule `N=C(N)c1cc(F)c(CNC(=O)[C@@H]2CCN2C(=O)[C@H](O)c2cc(Cl)cc(OC(F)F)c2)cc1F` [Example 41, Ph(3-Cl)(5-OCHF2)—(R)CH(OH)C(O)-Aze-Pab(2,5-diF)] yielded an IC50 at thrombin below 150 nM.

For the molecule `CCON=C(N)c1ccc(CNC(=O)[C@@H]2CCN2C(=O)[C@H](O)c2cc(Cl)cc(OC(F)F)c2)cc1` [Example 43, Ph(3-Cl)(5-OCHF2)—(R)CH(OH)C(O)-Aze-Pab(OEt)], the “conversion to the corresponding active inhibitor (free amidine)” value in data set [1] and in data set [2] was “converted to the corresponding active inhibitor (free amidine)” in each case. Turning to `CC(C)ON=C(N)c1ccc(CNC(=O)[C@@H]2CCN2C(=O)[C@H](O)c2cc(Cl)cc(OC(F)F)c2)cc1` [Example 45, Ph(3-Cl)(5-OCHF2)—(R)CH(OH)C(O)-Aze-Pab(OiPr)], the “conversion to the corresponding active inhibitor (free amidine)” value in data set [1] and in data set [2] was “converted to the corresponding active inhibitor (free amidine)” each time. Consider “Ph(3-Br)(5-OCHF2)—(R)CH(OH)C(O)-Aze-Pab(OMe) [Example 29]”, for which the “conversion to the corresponding active inhibitor (free amidine)” value in data set [1] and in data set [2] was “converted to the corresponding active inhibitor (free amidine)” each time.

As for “Ph(3-Cl)(5-OCHF2)—(R)CH(OH)C(O)-Aze-Pab(OcBu) [Example 1]”, the “conversion to the corresponding active inhibitor (free amidine)” value in data set [1] and in data set [2] was “converted to the corresponding active inhibitor (free amidine)” each time.
